Measured values: patent US5563156A, “Thrombin inhibitors” (Merrell Pharmaceuticals Inc., priority 1991, dated 1996)

Assays:
Type in all cases: biochemical
HUMAN LUNG TRYPTASE = assay: In vitro inhibition of human lung tryptase, rate constants by progress curve analysis; conditions: nonlinear regression (ENZFITTER)
Method: Using standard in vitro methodology for determining inhibitory activity of tryptase (Journal of Biological Chemistry, Vol. 261, Jun. 5, pp. 7322-7379, 1986), the following results have been obtained:
^a Rate constants were determined by progress curve analysis using a
nonlinear regression program (ENZFITTER)

human plasma [1] = assay: Anticoagulant effect in human plasma, activated partial thromboplastin time (aPTT)
Description: (§1) Anticoagulant data may be represented as follows:

human plasma [2] = assay: Anticoagulant effect in human plasma, thrombin time (TT)
Description: as §1

Row | Compound | Ki (HUMAN LUNG TRYPTASE) | koff (HUMAN LUNG TRYPTASE) | kon (HUMAN LUNG TRYPTASE) | ID2 a PTT (amount required for doubling the clotting time) (human plasma [1]) | ID2 TT (amount required for doubling the clotting time) (human plasma [2])
1 | Cl.Cl.N=C(N)NCCCC(NC(=O)[C@@H]1CCCN1C(=O)[C@H]1Cc2ccccc2CN1)C(=O)C(F)(F)C(F)(F)F.O (stereo partly drawn) [D-3-TIC--Pro--Arg--CF2 CF3, L-Prolinamide, N-[2-[3-[(aminoiminomethyl)amino]propyl]-3,3,4,4,4-pentafluoro-2-oxobutyl]-1-D-[(1,2,3,4-tetrahydro-3-isoquinolinyl)carbonyl]-, dihydrochloride, hydrate] | 75 nM | 0.00034 s⁻¹ | 4700 ± 200 M⁻¹ s⁻¹ |  | 
2 | CC(=O)O.F.N=C(N)NCCCC(NC(=O)[C@@H]1CCCN1C(=O)[C@H](N)Cc1ccccc1)C(=O)C(F)(F)F.O (stereo partly drawn) [D-Phe--Pro--Arg--CF3, L-Prolinamide, N-D-phenylalanyl-N-[1-[3-[(amino]iminomethyl)amino]propyl]-3,3,3-trifluoro-2-oxopropyl]-, hydrofluoride, acetate, hydrate] | 500 nM |  |  |  | 
3 | CC(=O)O.F.N=C(N)NCCCC(NC(=O)[C@@H]1CCCN1C(=O)[C@H](N)Cc1ccccc1)C(=O)C(F)(F)F.O (stereo partly drawn) [D-Phe--Pro--Arg--CF3] |  | 0.00015 s⁻¹ | 290 ± 20 M⁻¹ s⁻¹ | 148 µM | 43 µM
4 | L-Prolinamide, N-methyl-D-phenylalanyl-N-[1-[3-[(aminoiminomethyl) amino]propyl]-3,3,3-trifluoro-2-oxopropyl]-, dihydrochloride, hydrate [D-CH3 Phe--Pro--Arg--CF3] | 80 nM | 1.5e-05 s⁻¹ | 200 ± 10 M⁻¹ s⁻¹ | 218 µM | 108 µM
